{"source": "ChEMBL document CHEMBL1201862", "about": "“PubChem BioAssay data set” (2004)", "key": {"Cytochrome P450 1A2": {"target": "T1, Cytochrome P450 1A2 (Homo sapiens, UniProt P05177)", "T1 sequence (P05177 whole entry)": "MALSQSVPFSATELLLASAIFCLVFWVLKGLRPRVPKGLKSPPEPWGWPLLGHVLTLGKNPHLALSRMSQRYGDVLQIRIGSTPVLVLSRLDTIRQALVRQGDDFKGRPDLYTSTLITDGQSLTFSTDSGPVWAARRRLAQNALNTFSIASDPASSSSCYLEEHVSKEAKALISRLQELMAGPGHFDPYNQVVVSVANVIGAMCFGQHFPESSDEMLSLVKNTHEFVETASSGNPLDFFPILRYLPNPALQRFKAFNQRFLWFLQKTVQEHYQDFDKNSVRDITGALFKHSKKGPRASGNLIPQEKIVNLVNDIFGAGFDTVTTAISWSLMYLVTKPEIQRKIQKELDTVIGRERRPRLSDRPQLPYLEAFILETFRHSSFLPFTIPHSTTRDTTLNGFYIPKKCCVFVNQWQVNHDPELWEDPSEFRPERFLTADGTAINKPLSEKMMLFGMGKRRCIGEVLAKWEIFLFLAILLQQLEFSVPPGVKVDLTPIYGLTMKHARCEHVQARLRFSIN"}, "Cytochrome P450 2D6": {"target": "Cytochrome P450 2D6 (Homo sapiens, UniProt P10635)", "sequence (P10635 whole entry)": "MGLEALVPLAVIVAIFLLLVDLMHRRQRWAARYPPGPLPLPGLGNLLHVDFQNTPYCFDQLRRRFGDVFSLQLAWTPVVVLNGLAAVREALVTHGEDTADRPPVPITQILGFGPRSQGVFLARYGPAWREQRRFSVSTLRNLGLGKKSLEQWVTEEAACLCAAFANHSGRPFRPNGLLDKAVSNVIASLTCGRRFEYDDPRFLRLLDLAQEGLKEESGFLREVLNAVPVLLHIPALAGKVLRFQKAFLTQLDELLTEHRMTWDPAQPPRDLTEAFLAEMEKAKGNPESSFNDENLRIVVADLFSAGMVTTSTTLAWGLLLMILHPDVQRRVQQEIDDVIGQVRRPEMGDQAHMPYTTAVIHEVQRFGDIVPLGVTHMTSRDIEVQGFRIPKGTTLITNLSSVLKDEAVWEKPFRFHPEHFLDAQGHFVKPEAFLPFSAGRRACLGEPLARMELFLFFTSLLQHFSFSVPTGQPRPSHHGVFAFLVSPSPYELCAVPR"}, "cells": {"experiment": "cells", "format": "functional"}, "Large T antigen": {"target": "Large T antigen (Simian virus 40, UniProt P03070)", "sequence (P03070 whole entry)": "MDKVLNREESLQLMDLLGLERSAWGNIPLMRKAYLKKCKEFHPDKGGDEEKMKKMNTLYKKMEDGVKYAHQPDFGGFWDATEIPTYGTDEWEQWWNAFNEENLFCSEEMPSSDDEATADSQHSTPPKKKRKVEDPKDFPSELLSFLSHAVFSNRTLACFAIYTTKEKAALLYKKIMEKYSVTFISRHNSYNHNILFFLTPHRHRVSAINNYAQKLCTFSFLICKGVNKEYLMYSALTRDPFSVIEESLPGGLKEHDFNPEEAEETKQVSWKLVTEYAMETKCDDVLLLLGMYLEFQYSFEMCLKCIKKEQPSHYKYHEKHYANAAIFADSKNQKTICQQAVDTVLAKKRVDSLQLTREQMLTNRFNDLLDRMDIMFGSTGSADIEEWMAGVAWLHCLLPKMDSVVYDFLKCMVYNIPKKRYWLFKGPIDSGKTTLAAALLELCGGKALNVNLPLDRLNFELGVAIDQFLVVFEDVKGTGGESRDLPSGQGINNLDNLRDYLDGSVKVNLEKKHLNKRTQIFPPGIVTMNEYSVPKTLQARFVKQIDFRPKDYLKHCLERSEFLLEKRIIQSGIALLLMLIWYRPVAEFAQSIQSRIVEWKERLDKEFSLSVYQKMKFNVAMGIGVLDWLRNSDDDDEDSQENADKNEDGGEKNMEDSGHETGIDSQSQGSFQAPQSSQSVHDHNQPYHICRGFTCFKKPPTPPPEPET", "format": "functional, Betapolyomavirus macacae"}, "[1]": {"target": "Luciferin 4-monooxygenase (Photinus pyralis, UniProt P08659)", "sequence (P08659 whole entry)": "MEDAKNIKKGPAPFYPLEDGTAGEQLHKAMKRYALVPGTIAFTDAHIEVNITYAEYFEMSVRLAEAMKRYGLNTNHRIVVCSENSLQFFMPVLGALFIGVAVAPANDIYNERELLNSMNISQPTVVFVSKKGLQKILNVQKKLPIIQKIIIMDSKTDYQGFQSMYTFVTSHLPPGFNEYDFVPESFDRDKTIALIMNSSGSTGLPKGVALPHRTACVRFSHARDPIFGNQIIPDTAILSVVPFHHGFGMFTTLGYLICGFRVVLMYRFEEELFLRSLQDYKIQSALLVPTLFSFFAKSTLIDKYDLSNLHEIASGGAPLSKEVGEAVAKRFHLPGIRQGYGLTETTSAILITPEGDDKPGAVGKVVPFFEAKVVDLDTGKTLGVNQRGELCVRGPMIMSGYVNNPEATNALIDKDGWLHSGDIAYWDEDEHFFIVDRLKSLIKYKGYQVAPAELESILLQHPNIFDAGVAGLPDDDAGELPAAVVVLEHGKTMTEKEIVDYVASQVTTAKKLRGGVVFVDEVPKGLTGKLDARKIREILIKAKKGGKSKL", "experiment": "inhibition of purified Photinus pyralis luciferase – biochemical, luminescence, dose response (AID 1891)"}, "[2]": {"experiment": "Luminescence Cell-Based Dose Confirmation HTS to Identify Inhibitors of Platelet Dense Granule Release. [Related pubchem assays: 1663 (Primary HTS), 1678 (Summary of Project)]", "format": "functional"}, "Streptococcus": {"system": "Streptococcus", "experiment": "GAS UMAA2166 growth inhibition – luminescence, BacTiterGlo, counter-screen for streptokinase expression inhibitor project, dose response (AID 1915);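 note: potency for reduction of bacterial viability or growth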", "format": "functional, organism-based"}, "[3]": {"system": "Streptococcus sp. 'group A'", "experiment": "Streptococcus pyogenes SK(-)GAS viability under kanamycin – luminescence, BacTiterGlo, confirmation, counter-screen for streptokinase expression inhibitor project, dose response (AID 1900)", "format": "functional, organism-based"}, "Cytochrome P450 2C9": {"target": "Cytochrome P450 2C9 (Homo sapiens, UniProt P11712)", "sequence (P11712 whole entry)": "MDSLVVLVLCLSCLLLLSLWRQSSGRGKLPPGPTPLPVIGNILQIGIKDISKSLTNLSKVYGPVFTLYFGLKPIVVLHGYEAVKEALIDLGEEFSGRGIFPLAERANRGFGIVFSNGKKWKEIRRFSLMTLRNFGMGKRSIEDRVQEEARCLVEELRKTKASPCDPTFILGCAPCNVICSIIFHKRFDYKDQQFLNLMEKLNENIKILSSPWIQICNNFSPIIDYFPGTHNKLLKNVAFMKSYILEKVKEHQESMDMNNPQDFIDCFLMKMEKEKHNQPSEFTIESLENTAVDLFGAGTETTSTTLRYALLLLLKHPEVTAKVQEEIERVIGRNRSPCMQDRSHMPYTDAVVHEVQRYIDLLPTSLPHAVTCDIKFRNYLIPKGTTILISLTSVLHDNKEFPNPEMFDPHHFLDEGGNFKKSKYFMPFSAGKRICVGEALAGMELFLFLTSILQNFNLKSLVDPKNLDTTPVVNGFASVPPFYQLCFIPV"}, "Cytochrome P450 2C19": {"target": "Cytochrome P450 2C19 (Homo sapiens, UniProt P33261)", "sequence (P33261 whole entry)": "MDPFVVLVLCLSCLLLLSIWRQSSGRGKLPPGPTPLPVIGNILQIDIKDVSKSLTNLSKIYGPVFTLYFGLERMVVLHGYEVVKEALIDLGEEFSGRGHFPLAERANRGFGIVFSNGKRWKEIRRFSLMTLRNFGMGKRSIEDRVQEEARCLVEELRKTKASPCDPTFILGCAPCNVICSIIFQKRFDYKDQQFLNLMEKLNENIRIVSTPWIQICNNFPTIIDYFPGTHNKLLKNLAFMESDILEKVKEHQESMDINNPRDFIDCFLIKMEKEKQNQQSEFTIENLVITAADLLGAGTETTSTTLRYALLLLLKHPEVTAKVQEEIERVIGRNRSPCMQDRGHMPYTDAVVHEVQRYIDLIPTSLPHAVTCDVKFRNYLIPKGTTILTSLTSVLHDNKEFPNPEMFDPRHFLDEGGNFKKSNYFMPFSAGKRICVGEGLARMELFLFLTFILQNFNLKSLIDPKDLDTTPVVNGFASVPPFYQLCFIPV", "experiment": "Cytochrome panel assay with activity outcomes. Panel member name: p450-cyp2c19 Compounds with AC50 equal or less than 10 uM are considered active", "format": "functional", "conditions": "read-out: AC50"}, "[4]": {"target": "T2, Zinc finger protein mex-5 (Caenorhabditis elegans, UniProt Q9XUB2)", "T2 sequence (Q9XUB2 whole entry)": "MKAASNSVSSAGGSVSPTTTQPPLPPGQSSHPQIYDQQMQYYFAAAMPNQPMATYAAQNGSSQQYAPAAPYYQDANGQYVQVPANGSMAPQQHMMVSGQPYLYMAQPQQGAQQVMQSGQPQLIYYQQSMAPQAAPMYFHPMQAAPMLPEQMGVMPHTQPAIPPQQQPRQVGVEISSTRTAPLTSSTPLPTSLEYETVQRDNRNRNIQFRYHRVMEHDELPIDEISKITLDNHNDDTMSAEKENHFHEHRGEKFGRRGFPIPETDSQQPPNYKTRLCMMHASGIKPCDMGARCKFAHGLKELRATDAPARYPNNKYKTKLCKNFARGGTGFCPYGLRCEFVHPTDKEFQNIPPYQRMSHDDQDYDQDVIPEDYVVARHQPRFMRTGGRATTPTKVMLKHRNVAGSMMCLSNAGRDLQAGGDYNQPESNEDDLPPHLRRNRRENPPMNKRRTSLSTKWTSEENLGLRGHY", "experiment": "potency of MEX-5 RNA-binding blockers – biochemical, C. elegans, fluorescence polarization, dose response (AID 1960)"}, "[5]": {"target": "T3, RNA-binding protein pos-1 (Caenorhabditis elegans, UniProt G5EF15)", "T3 sequence (G5EF15 whole entry)": "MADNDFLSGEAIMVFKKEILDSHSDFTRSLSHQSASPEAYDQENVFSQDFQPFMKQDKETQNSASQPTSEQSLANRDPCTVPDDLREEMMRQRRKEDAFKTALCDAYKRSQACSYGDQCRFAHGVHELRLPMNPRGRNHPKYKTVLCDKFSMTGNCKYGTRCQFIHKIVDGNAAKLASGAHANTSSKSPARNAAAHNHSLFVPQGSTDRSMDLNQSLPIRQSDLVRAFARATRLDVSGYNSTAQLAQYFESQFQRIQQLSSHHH", "experiment": "disruptors of C. elegans POS-1 RNA interaction – biochemical, fluorescence polarization, dose response (AID 1964);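 note: purified POS-1 fused to maltose binding protein made in E. coli; potency of compounds blocking POS-1 binding to fluorescent RNA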"}, "Cytochrome P450 3A4": {"target": "Cytochrome P450 3A4 (Homo sapiens, UniProt P08684)", "sequence (P08684 whole entry)": "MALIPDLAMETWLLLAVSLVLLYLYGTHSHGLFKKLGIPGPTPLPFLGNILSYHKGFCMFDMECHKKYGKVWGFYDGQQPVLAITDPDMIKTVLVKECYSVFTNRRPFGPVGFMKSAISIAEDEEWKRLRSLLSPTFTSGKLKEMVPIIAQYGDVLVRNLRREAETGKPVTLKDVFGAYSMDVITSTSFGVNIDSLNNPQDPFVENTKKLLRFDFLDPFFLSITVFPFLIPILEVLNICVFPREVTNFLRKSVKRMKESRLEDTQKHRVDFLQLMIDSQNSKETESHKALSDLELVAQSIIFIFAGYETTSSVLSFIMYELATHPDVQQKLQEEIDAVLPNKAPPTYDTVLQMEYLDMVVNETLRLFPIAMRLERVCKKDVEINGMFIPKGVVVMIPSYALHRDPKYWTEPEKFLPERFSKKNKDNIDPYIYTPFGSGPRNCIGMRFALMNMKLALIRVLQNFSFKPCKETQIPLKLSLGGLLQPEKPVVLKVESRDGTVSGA"}, "[6]": {"target": "T4, Rac GTPase-activating protein 1 (Homo sapiens, UniProt Q9H0H5)", "T4 sequence (Q9H0H5 whole entry)": "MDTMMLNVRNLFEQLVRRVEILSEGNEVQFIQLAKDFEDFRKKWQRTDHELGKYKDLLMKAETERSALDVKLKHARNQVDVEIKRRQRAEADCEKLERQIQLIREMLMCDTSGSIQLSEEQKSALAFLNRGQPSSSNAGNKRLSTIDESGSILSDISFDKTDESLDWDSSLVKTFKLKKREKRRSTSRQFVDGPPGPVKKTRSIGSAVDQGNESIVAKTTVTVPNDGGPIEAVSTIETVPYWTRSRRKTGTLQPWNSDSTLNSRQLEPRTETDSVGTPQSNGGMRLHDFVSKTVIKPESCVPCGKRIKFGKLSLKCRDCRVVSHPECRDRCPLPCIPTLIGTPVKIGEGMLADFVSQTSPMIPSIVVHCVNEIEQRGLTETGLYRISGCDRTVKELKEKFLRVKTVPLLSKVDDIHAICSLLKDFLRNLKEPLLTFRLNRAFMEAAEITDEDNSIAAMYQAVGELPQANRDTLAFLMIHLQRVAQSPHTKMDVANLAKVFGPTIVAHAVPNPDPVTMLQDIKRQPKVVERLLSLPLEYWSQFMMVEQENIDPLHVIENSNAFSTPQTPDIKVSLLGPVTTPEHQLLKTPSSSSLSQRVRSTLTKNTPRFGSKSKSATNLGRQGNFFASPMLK", "experiment": "blockers of MgcRacGAP-driven Rac1 GTP hydrolysis – biochemical, ADP Hunter fluorescence, primary and confirmatory, confirmation (AID 624330)", "format": "functional"}}, "note": "Calls of active or inactive are those of the source.", "data": [{"compound": "CCCc1nc2ccccc2c(C(=O)OCC(=O)Nc2cccc(S(=O)(=O)N3CCOCC3)c2)c1CC", "values": [{"measurement": "AC50", "setting": "Cytochrome P450 1A2", "result": "10 µM (inconclusive)"}, {"measurement": "AC50", "setting": "Cytochrome P450 2D6", "result": "17.8 µM (inconclusive)"}]}, {"compound": "CCOC(=O)c1cc(-c2csc(COc3ccccc3)n2)on1", "values": [{"measurement": "IC50", "setting": "cells", "result": "< 0.1 µM (active)"}]}, {"compound": "COc1cc2c(cc1OC)-c1cc(Nc3ccc(N(C)C)cc3)nc(=O)n1CC2", "values": [{"measurement": "IC50", "setting": "Large T antigen", "result": "2.74 µM (active)"}, {"measurement": "EC50", "setting": "[1]", "result": "> 112 µM (not active)"}, {"measurement": "EC50", "setting": "[2]", "result": "4.83 µM (active)"}]}, {"compound": "O=C(CSc1nc2ccccc2s1)Nc1nccs1", "values": [{"measurement": "AC50", "setting": "Cytochrome P450 2D6", "result": "0.316 µM (inconclusive)"}]}, {"compound": "COCCn1c(=O)c(-c2cccc(C#N)c2)nc2cnc(N(C)C)nc21", "values": [{"measurement": "AC50", "setting": "Cytochrome P450 1A2", "result": "2 µM (inconclusive)"}, {"measurement": "AC50", "setting": "Cytochrome P450 2D6", "result": "0.1 µM (inconclusive)"}]}, {"compound": "O=C(Nc1nnc(C2=COCCO2)o1)c1cccc(C(F)(F)F)c1", "values": [{"measurement": "IC50", "setting": "cells", "result": "4.89 µM (active)"}, {"measurement": "EC50", "setting": "Streptococcus", "result": "7.55 µM (active)"}, {"measurement": "EC50", "setting": "[3]", "result": "2.96 µM (active)"}]}, {"compound": "O=C(O)[C@@H]1Cc2c([nH]c3ccccc23)[C@@H](CCCCO)N1", "values": [{"measurement": "AC50", "setting": "Cytochrome P450 2D6", "result": "3.98 µM (inconclusive)"}]}, {"compound": "O=C(Nc1ccc(F)cc1)c1cc(S(=O)(=O)N2CCCCC2)cs1", "values": [{"measurement": "AC50", "setting": "Cytochrome P450 2D6", "result": "25.1 µM (inconclusive)"}]}, {"compound": "CCCCCCNC(=O)N[C@H](C(=O)NCCC[C@H]1CN2C(=NC[C@H]2C)N1CCC(c1ccccc1)c1ccccc1)C(C)O", "note": "(stereo partly drawn)", "values": [{"measurement": "IC50", "setting": "Large T antigen", "result": "> 100 µM (active)"}]}, {"compound": "Cn1c(C(=O)NCC2CCCO2)cc2c(=O)n3ccccc3nc21", "note": "(stereo not drawn)", "values": [{"measurement": "AC50", "setting": "Cytochrome P450 2C9", "result": "25.1 µM (inconclusive)"}, {"measurement": "AC50", "setting": "Cytochrome P450 2C19", "result": "17.8 µM (inconclusive)"}, {"measurement": "AC50", "setting": "Cytochrome P450 2D6", "result": "3.55 µM (inconclusive)"}]}, {"compound": "CCOC(=O)COc1ccc2c(c1)c(C(=O)OCC)c(C)n2CC", "values": [{"measurement": "IC50", "setting": "cells", "result": "5.46 µM (active)"}]}, {"compound": "CCOC(=O)c1c(NC(=O)CC2Nc3ccccc3NC2=O)sc(C)c1C", "note": "(stereo not drawn)", "values": [{"measurement": "EC50", "setting": "[4]", "result": "> 300 µM (not active)"}, {"measurement": "EC50", "setting": "[5]", "result": "> 300 µM (not active)"}]}, {"compound": "Cc1ccc(N(CCC#N)C(=O)CSc2ccc3c(c2)OCCO3)cc1", "values": [{"measurement": "AC50", "setting": "Cytochrome P450 2D6", "result": "25.1 µM (inconclusive)"}]}, {"compound": "O=C(Nc1ccc2nc(-c3ccc(Br)o3)[nH]c2c1)c1ccco1", "values": [{"measurement": "AC50", "setting": "Cytochrome P450 2C9", "result": "11.2 µM (inconclusive)"}, {"measurement": "AC50", "setting": "Cytochrome P450 2D6", "result": "1 µM (inconclusive)"}]}, {"compound": "COC(=O)c1[nH]c2ccccc2c1/C=C1\\C(=O)NC(=O)N(c2ccc(OC)cc2)C1=O", "values": [{"measurement": "IC50", "setting": "Large T antigen", "result": "89 µM (active)"}]}, {"compound": "O=C1NC(=O)N(Cc2ccccc2Cl)C(=O)/C1=C/Nc1ccc(F)cc1", "values": [{"measurement": "EC50", "setting": "[4]", "result": "> 300 µM (not active)"}, {"measurement": "EC50", "setting": "[5]", "result": "> 300 µM (not active)"}]}, {"compound": "COC(=O)c1cc(C(=O)OC)cc(-n2c(C)cc(C(=O)CC#N)c2C)c1", "values": [{"measurement": "EC50", "setting": "[4]", "result": "> 300 µM (not active)"}, {"measurement": "EC50", "setting": "[5]", "result": "> 300 µM (not active)"}]}, {"compound": "O=C(Nc1ccc2c(c1)CCC2)c1ccc(Br)o1", "values": [{"measurement": "IC50", "setting": "cells", "result": "> 50 µM (active)"}]}, {"compound": "N#CC1=C(N)Oc2[nH]nc(-c3cccnc3)c2C1c1ccc([N+](=O)[O-])o1", "note": "(stereo not drawn)", "values": [{"measurement": "IC50", "setting": "cells", "result": "9.19 µM (active)"}]}, {"compound": "COc1ccccc1-c1nc(NCc2cnc(C)cn2)c2ccccc2n1", "values": [{"measurement": "AC50", "setting": "Cytochrome P450 2C19", "result": "39.8 µM (inconclusive)"}, {"measurement": "AC50", "setting": "Cytochrome P450 2D6", "result": "31.6 µM (inconclusive)"}]}, {"compound": "Fc1cccc(/C=N\\N=C/c2cccc(F)c2)c1", "values": [{"measurement": "AC50", "setting": "Cytochrome P450 2D6", "result": "25.1 µM (inconclusive)"}, {"measurement": "AC50", "setting": "Cytochrome P450 3A4", "result": "31.6 µM (inconclusive)"}]}, {"compound": "N=c1c(C(=O)NC2CCCCC2)cc2c(=O)n3ccccc3nc2n1Cc1cccnc1", "values": [{"measurement": "EC50", "setting": "[4]", "result": "12.7 µM (active)"}, {"measurement": "EC50", "setting": "[5]", "result": "> 300 µM (not active)"}]}, {"compound": "Cc1ccc(S(=O)(=O)CCSc2nc(C)cc(C(F)(F)F)c2C#N)cc1", "values": [{"measurement": "EC50", "setting": "[4]", "result": "80.8 µM (active)"}, {"measurement": "EC50", "setting": "[5]", "result": "> 300 µM (not active)"}]}, {"compound": "COCC(=O)N1CCC[C@@]2(CCN(c3ncccn3)C2)C1", "values": [{"measurement": "AC50", "setting": "Cytochrome P450 2D6", "result": "15.8 µM (inconclusive)"}]}, {"compound": "C/N=c1\\scc(C)n1/N=C/c1ccc(O)cc1O", "values": [{"measurement": "IC50", "setting": "Large T antigen", "result": "4.27 µM (active)"}, {"measurement": "IC50", "setting": "[6]", "result": "10.5 µM (active)"}]}, {"compound": "Oc1ccc2[nH]ccc2c1", "values": [{"measurement": "IC50", "setting": "Large T antigen", "result": "80.2 µM (active)"}]}]}
